Data as given in patent publication US11591323B2, “Muscarinic agonists as non-steroidal and non-opioid analgesics and methods of use thereof” (Barry University, priority 2019, dated 2023).
Read-outs that look alike come from different tables or passages of the source.

Key:
[1] = molecular target: T1, M3 muscarinic receptor (Homo sapiens, UniProt P20309); test: accumulation of IPX, M3 CHO cells (M3Gq); type: cell-based; design: host or cells: CHO cells, stably transfected; conditions: for Kd: read-out: pKA (converted); for EC50: read-out: pEC50 (converted)
[2] = molecular target: T1, M3 muscarinic receptor; test: accumulation of IPX, M3 CHO cells transfected with G15 (M3Gq+G15); type: cell-based; design: host or cells: CHO cells; conditions: M3Gq + G15 (↑IPX)
Procedure: (§1) To determine level of cAMP, cells in suspension were pre-incubated for 1 h with 0.4 μM [^3H]adenine, washed, and incubated for 10 min in the presence of isobutylmethylxanthine and 10 μM forskolin. […] Incubation was ended by addition of 0.2 ml of 2.5 M HCl to the samples. Samples were applied to alumina columns (1.5 g of alumina per column), washed with 2 ml ammonium acetate (pH=7.0) and eluted from columns with 4 ml ammonium acetate and measured by liquid scintillation spectrometry. […] The incubation was stopped by addition of 0.5 ml of chloroform methanol HCl mixture (2:1:0.1). After separation of water and organic phases, 0.6 ml of water phase was applied to Dowex columns (1.5 g of Dowex per column), washed by 20 ml of 60 mM ammonium formate/5 mM sodium borate buffer and eluted from columns with 4 ml of 1M ammonium formate/0.1 formic acid buffer and measured by liquid scintillation spectrometry.
(§2) Measurements of the production of cAMP and inositol phosphates: Levels of second messengers cAMP and inositol phosphates were determined in radiochemical chromatography assays as described previously. To determine level of cAMP, cells in suspension were pre-incubated for 1 h with 0.4 μM [^3H]adenine, washed, and incubated for 10 min in the presence of isobutylmethylxanthine and 10 μM forskolin. […] Incubation was ended by addition of 0.2 ml of 2.5 M HCl to the samples. Samples were applied to alumina columns (1.5 g of alumina per column), washed with 2 ml ammonium acetate (pH=7.0) and eluted from columns with 4 ml ammonium acetate and measured by liquid scintillation spectrometry. […] For this purpose, new CHO cell lines stably expressing promiscuous G15 G-protein and M2 or M4 receptor were generated by transfection with pCMV/hygro vector and hygromycin selection. To determine the rate of formation of inositol phosphates IPX, suspended cells were pre-incubated with 0.1 μM [^3H]myo-inositol for 60 min, washed, and incubated with 10 mM LiCl for 15 min. […] The incubation was stopped by addition of 0.5 ml of chloroform methanol HCl mixture (2:1:0.1). After separation of water and organic phases, 0.6 ml of water phase was applied to Dowex columns (1.5 g of Dowex per column), washed by 20 ml of 60 mM ammonium formate/5 mM sodium borate buffer and eluted from columns with 4 ml of 1M ammonium formate/0.1 formic acid buffer and measured by liquid scintillation spectrometry.
(§3) For bi-phasic response, curves were inhibitory and stimulatory phase were fitted separately. Operational Model of Functional Agonism
(§4) [formula] where y is functional response at concentration of tested compound x, EMAX is maximal response of the system, KA is equilibrium dissociation constant and nH is slope factor. Eq. 5 was fitted to data from functional experiments. Eq. 5 was fitted to data by the two-step procedure described earlier. […] In the second step, Eq. 5 with EMAX fixed to the value determined in the first step was fitted to individual experimental data sets. Relative Intrinsic Activity

[3] = molecular target: T2, M2 muscarinic receptor (Homo sapiens, UniProt P08172); test: stimulation of cAMP, M2 CHO cells (M2Gs); type: cell-based; design: host or cells: CHO cells, stably transfected; conditions: M2Gs (↑cAMP)
T2 sequence (P08172 1-466): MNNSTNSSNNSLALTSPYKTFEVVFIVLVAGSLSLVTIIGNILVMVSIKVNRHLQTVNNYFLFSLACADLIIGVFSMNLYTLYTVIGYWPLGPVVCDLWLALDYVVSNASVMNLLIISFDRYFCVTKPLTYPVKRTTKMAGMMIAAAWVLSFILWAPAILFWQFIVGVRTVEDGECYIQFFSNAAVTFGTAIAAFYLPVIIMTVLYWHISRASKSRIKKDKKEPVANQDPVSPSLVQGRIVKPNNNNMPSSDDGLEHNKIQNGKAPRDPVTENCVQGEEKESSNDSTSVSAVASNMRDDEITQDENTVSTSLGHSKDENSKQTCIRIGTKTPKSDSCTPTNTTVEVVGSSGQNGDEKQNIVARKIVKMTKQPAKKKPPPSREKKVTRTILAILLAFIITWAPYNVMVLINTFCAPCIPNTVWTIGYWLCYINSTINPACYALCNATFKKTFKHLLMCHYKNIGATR
Procedure: as §1, §2, §3, §4

[4] = molecular target: T2, M2 muscarinic receptor; test: inhibition of forskolin-stimulated cAMP, M2 CHO cells (M2Gi); type: cell-based; design: host or cells: CHO cells, stably transfected; conditions: for Emax: CHO
[5] = molecular target: T3, M5 muscarinic receptor (Homo sapiens, UniProt P08912); test: [3H]NMS competition binding, M5 CHO membranes; design: host or cells: CHO cells, stably transfected
T3 sequence (P08912 1-532): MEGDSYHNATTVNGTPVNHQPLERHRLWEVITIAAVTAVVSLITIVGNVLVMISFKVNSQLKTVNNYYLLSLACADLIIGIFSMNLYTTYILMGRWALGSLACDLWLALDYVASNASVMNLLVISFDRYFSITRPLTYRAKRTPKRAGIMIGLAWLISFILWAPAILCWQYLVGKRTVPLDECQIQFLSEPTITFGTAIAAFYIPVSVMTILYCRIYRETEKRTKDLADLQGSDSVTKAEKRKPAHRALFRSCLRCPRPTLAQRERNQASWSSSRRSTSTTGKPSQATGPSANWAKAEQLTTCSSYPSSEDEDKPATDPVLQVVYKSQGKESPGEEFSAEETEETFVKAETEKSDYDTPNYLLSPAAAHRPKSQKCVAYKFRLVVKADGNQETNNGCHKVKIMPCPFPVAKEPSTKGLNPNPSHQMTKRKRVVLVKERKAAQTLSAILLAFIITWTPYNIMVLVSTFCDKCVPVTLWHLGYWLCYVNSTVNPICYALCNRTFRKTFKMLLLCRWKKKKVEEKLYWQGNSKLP

[6] = M3 (↑IPX), preferential response, Table 7
[7] = M3 (↑IPX), preferential response, Table 7, operational efficacy
[8] = M3 (↑IPX), preferential response, Table 7, operational model
[9] = M3 (↑IPX), preferential response, relative to carbachol, Tables 2, 3, 7
[10] = M3 (↑IPX), preferential response, to carbachol, Tables 2, 3, 7
[11] = M2 (↓cAMP), preferential response, Table 7, read-out: E′MAX
[12] = M2 (↓cAMP), preferential response, Table 7, operational efficacy
[13] = M2 (↓cAMP), preferential response, Table 7, operational model, read-out: pKA (converted)
[14] = M2 (↓cAMP), preferential response, Table 7, read-out: pEC50 (converted)
[15] = M2Gi (↓cAMP), Table 8, to carbachol
[16] = competition with 1 nM [3H]NMS, read-out: Inhibition constants (Ki) as negative logarithms, M5 (converted)
[17] = M2 (↓cAMP), preferential response, relative to carbachol, Tables 2, 3, 7
[18] = M2 (↓cAMP), preferential response, to carbachol, Tables 2, 3, 7

T1 sequence (P20309 whole entry): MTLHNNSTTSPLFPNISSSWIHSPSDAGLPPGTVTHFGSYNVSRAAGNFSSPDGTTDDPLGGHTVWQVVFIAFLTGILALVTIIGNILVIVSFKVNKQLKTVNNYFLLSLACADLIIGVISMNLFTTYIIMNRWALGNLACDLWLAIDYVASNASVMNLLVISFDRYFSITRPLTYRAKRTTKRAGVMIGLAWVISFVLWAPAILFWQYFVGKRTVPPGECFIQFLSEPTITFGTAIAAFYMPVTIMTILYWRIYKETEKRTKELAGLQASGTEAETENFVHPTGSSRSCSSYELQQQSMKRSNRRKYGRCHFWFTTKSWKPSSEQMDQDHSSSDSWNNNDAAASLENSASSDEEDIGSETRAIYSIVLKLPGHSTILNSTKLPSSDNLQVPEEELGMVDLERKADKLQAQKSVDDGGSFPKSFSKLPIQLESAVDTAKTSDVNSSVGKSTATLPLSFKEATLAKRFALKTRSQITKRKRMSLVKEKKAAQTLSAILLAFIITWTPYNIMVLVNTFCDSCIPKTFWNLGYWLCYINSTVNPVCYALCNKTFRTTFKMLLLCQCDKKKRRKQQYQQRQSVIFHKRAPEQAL

Row | Structure (SMILES) | E′MAX [1, 6] [fold over basal] | τ [1, 7] | Kd [1, 8] [µM] | EC50 [1, 6] [µM] | RAi [1, 9] | Δlog(τ/KA) [1, 10] | Emax [4, 11] [%] | τ [4, 12] | Kd [4, 13] [µM] | EC50 [4, 14] [µM] | Ki [5, 16] [µM] | RAi [4, 17] | Δlog(τ/KA) [4, 18] | also measured
1 | C[N+]1(Cc2cccs2)CC=CCC1.[I-] (centres unmarked) [Compound 7A, 1-methyl-1-[(thiophen-2-yl)methyl]-1,2,3,6-tetrahydropyridin-1-ium iodide] | 3.0 ± 0.3 | 0.08 ± 0.01 | 3.16 | 3.16 | 0.011 ± 0.001 | 1.94 ± 0.20 | 53 ± 2 | 1.51 ± 0.15 | 1 | 0.389 | 10 | – | – | E′MAX ([1]; M3Gq (↑IPX), Table 8): 2.6 ± 0.3 fold over basal; τ ([1]; M3Gq (↑IPX), Table 8): 0.06 ± 0.01; RAi ([1]; M3Gq (↑IPX), Table 8, relative to carbachol): 0.0084 ± 0.0011; Δlog(τ/KA) ([1]; M3Gq (↑IPX), Table 8, to carbachol): 2.08 ± 0.34; EC50 ([1]; M3Gq (↑IPX), Table 8): 3.98 µM; Kd ([1]; M3Gq (↑IPX), Table 8): 3.98 µM; E′MAX ([2]; Table 8): 3.0 ± 0.3 fold over basal; τ ([2]; Table 8): 0.08 ± 0.01; RAi ([2]; Table 8, relative to carbachol): 0.011 ± 0.001; Δlog(τ/KA) ([2]; Table 8, to carbachol): 1.94 ± 0.20; EC50 ([2]; Table 8, read-out: pEC50 (converted)): 3.16 µM; Kd ([2]; Table 8, read-out: pKA (converted)): 3.16 µM; RAi ([3]; Table 8, relative to carbachol): 0; E′MAX ([4]; M2Gi (↓cAMP), Table 8): 53 ± 2 % inhibition; pEC50 ([4]; M2Gi (↓cAMP), Table 8): 6.41 ± 0.05; pKA ([4]; M2Gi (↓cAMP), Table 8): 6.0 ± 0.1; τ ([4]; M2Gi (↓cAMP), Table 8): 1.5 ± 0.2; RAi ([4]; M2Gi (↓cAMP), Table 8, relative to carbachol): 0.140 ± 0.008; Δlog(τ/KA) [4, 15]: 0.93 ± 0.09
2 | C[N+]1(Cc2ccc(Br)s2)CC=CCC1.[I-] (centres unmarked) [Compound 7C, 1-[(5-bromothiophen-2-yl)methyl]-1-methyl-1,2,3,6-tetrahydropyridin-1-ium iodide] | 1.6 ± 0.1 | 0.02 ± 0.01 | 2.51 | 2.51 | – | – | – | 0.76 ± 0.08 | 3.16 | 1.62 | 0.977 | 0.018 ± 0.002 | 1.69 ± 0.09 | RAi [1]: 0.0042 ± 0.0005; Δlog(τ/KA) [1]: 2.38 ± 0.66; Emax [4]: 38 ± 2%
3 | Brc1ccc(CN2CC=CCC2)s1.Cl [Compound 6C, 1-[(5-bromothiophen-2-yl)methyl]-1,2,3,6-tetrahydropyridin-1-ium chloride] | 1.8 ± 0.1 | 0.03 ± 0.01 | 3.98 | 5.01 | 0.0029 ± 0.0004 | 2.53 ± 0.33 | 24 ± 1 | 0.38 ± 0.04 | 3.16 | 2.19 | 12.9 | 0.0070 ± 0.0006 | 2.02 ± 0.22 | –
4 | C[N+]1(Cc2ccc(Cl)s2)CC=CCC1.[I-] (centres unmarked) [Compound 7D, 1-[(5-chlorothiophen-2-yl)methyl]-1-methyl-1,2,3,6-tetrahydropyridin-1-ium iodide] | 1.8 ± 0.1 | 0.03 ± 0.01 | 3.98 | 3.16 | – | – | – | 0.83 ± 0.08 | – | – | – | 0.008 ± 0.001 | 2.05 ± 0.19 | RAi [1]: 0.0050 ± 0.0006; Δlog(τ/KA) [1]: 2.30 ± 0.45; EC50 [4]: 3.89 µM; Kd [4]: 6.31 µM; Emax [4]: 40 ± 2%; Ki ([5]; Inhibition constants (Ki) as negative logarithms, M5, competition with 1 nM [3H]NMS): 1.7 µM
5 | C[N+](C)(C)CCOC(N)=O [carbachol, reference compound] | – | – | – | – | – | – | – | – | – | – | – | – | 0 | E′MAX ([3]; Table 8): 3.6 ± 0.2 fold increase; Δlog(τ/KA) ([3]; Table 8, to carbachol): 0; E′MAX ([4]; M2 (↓cAMP), preferential response, Table 7): 44 ± 1 % inhibition; E′MAX ([4]; M2Gi (↓cAMP), Table 8): 44 ± 1 % inhibition; Δlog(τ/KA) [4, 15]: 0
6 | Cc1ccc(CN2CC=CCC2)s1.Cl [Compound 6B, 1-[(5-methylthiophen-2-yl)methyl]-1,2,3,6-tetrahydropyridin-1-ium chloride] | 2.0 ± 0.2 | 0.04 ± 0.01 | 15.8 | 31.6 | 0.0006 ± 0.0001 | 3.24 ± 0.34 | 47 ± 2 | 1.15 ± 0.08 | 20 | 9.12 | 24 | 0.0047 ± 0.0004 | 2.35 ± 0.16 | –
7 | Cc1ccc(C[N+]2(C)CC=CCC2)s1.[I-] (centres unmarked) [Compound 7B, 1-methyl-1-[(5-methylthiophen-2-yl)methyl]-1,2,3,6-tetrahydropyridin-1-ium iodide] | 4.4 ± 0.4 | 0.14 ± 0.01 | 5.01 | 8.32 | 0.0077 ± 0.0008 | 2.11 ± 0.12 | 36 ± 1 | 0.69 ± 0.07 | 1.58 | 0.933 | 3.39 | 0.029 ± 0.002 | 1.48 ± 0.15 | –
